Values after ≈ are worked out from the molar mass of the structure shown. Active and inactive are the calls of the source. The calls are words filed in the database; no cut-off is given here.
How the values were obtained:
Beta-lactamase = Beta-lactamase (Pseudomonas aeruginosa (strain ATCC 15692 / PAO1 / 1C / PRS 101 / LMG12228), UniProt P24735); experiment: Inhibition of Pseudomonas aeruginosa 18SH Beta-lactamase.
Escherichia coli = experiment: In vitro inhibition of Escherichia coli TEM-3 growth.; assay type: functional
Pseudomonas aeruginosa = experiment: In vitro inhibition of Pseudomonas aeruginosa 18SH growth.; assay type: functional
Citrobacter freundii = experiment: In vitro inhibition of Citrobacter freundii 1982 growth.; assay type: functional
[1] = molecular target: Beta-lactamase (Pseudomonas aeruginosa (strain ATCC 15692 / PAO1 / 1C / PRS 101 / LMG12228)) (UniProt P24735)
Description: Acylation of Pseudomonas aeruginosa 18SH Beta-lactamase

[2] = molecular target: Beta-lactamase (Pseudomonas aeruginosa (strain ATCC 15692 / PAO1 / 1C / PRS 101 / LMG12228)) (UniProt P24735); remark: listed apart in the source
Description: Deacylation of 18SH Beta-lactamase of Pseudomonas aeruginosa

[3] = molecular target: Beta-lactamase (Pseudomonas aeruginosa (strain ATCC 15692 / PAO1 / 1C / PRS 101 / LMG12228)) (UniProt P24735); remark: listed apart in the source
Description: Affinity for stable acyl 18SH Beta-lactamase complex of Pseudomonas aeruginosa

[4] = Relative permeability as IC50 for beta lactamase inhibition in intact Pseudomonas aeruginosa growing cells to the observed IC50 in the same cells treated with 0.7% final concentration of octyl-poly(oxyethylene); assay type: functional
[5] = Relative permeability as IC50 for beta lactamase inhibition in intact Citrobacter freundii growing cells to the observed IC50 in the same cells treated with 0.7% final concentration of octyl-poly(oxyethylene); assay type: functional
[6] = Relative permeability as IC50 for beta lactamase inhibition in intact Pseudomonas aeruginosa growing cells to the observed IC50 in the same cells treated with 0.7% final concentration of octyl-poly(oxyethylene);NA= Not active; assay type: functional, cell-based
[7] = Relative permeability as IC50 for beta lactamase inhibition in intact Citrobacter freundii growing cells to the observed IC50 in the same cells treated with 0.7% final concentration of octyl-poly(oxyethylene);NA= Not active; assay type: functional, cell-based
[8] = molecular target: Beta-lactamase (Pseudomonas aeruginosa (strain ATCC 15692 / PAO1 / 1C / PRS 101 / LMG12228)) (UniProt P24735); remark: listed apart in the source
Description: Time taken for deacylation of Pseudomonas aeruginosa 18SH Beta-lactamase

Beta-lactamase TEM = Beta-lactamase TEM (Escherichia coli, UniProt P62593); experiment: Inhibitory activity against Escherichia coli TEM-3 Beta-lactamase;NA=not active
Sequence of Beta-lactamase TEM (P62593 24-286 limits assumed): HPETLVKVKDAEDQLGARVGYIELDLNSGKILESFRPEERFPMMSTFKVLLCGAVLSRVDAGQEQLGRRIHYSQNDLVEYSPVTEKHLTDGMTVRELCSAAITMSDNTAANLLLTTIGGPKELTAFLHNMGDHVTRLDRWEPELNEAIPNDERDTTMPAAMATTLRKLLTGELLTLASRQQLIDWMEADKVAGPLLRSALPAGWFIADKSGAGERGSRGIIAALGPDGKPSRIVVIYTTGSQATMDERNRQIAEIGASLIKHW

Sequence of Beta-lactamase (P24735 whole entry): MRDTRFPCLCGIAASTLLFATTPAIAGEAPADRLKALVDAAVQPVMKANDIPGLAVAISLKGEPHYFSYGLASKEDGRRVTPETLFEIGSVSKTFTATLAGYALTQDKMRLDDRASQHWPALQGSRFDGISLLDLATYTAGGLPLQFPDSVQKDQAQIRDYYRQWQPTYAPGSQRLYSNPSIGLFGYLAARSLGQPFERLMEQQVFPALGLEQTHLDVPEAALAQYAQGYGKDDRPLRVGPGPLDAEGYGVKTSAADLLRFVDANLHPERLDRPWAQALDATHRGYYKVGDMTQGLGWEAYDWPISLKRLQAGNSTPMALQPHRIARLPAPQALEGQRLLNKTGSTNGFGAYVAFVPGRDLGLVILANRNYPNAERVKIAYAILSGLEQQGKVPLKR
Sequence of Beta-lactamase (Pseudomonas aeruginosa (strain ATCC 15692 / PAO1 / 1C / PRS 101 / LMG12228)) (P24735 27-397 limits assumed): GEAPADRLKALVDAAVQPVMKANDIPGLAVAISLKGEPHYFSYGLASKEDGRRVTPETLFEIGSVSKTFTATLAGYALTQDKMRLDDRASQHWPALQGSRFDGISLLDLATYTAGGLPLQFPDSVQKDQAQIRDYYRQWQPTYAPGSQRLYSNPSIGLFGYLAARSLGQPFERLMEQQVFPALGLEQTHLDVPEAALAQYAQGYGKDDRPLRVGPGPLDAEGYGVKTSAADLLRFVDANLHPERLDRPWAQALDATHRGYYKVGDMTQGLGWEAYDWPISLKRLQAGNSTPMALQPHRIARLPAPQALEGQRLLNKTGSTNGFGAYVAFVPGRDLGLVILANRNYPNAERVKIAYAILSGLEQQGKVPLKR

Row | IC50 (Beta-lactamase) [nM] | MIC (Escherichia coli) [µg/mL] | MIC (Pseudomonas aeruginosa) [µg/mL] | MIC (Citrobacter freundii) [µg/mL] | SMILES | Kon [1] [s⁻¹] | k off [2] [s⁻¹] | Ks [3] [µM] | Ratio [4] | Ratio [5] | Ratio [6] | Ratio [7] | k off [8] [s⁻¹] | IC50 (Beta-lactamase TEM)
1 | 853 | 8 | 128 | 1 | Cn1cnnc1SCC(=O)N1CC[C@@H]2[C@H]1C(=O)N2S(=O)(=O)[O-].[Na+] |  |  |  |  |  |  |  |  | 
2 | 25 | 8 | 128 | 8 | O=C(CNc1ccc(O)cc1)N1CC[C@@H]2[C@H]1C(=O)N2S(=O)(=O)[O-].[Na+] |  |  |  |  |  |  |  |  | 
3 | 55 | 16 | 16 | 0.25 | Cc1nn(C)c(SCC(=O)N2CC[C@@H]3[C@H]2C(=O)N3S(=O)(=O)[O-])nc1=O.[Na+] |  |  |  |  |  |  |  |  | 
4 | 1040 | 16 | > 16 | > 16 | NC(=O)/C=C1\CN(C(=O)OCc2ccccc2)[C@@H]2C(=O)N(S(=O)(=O)[O-])[C@H]12.[Na+] |  |  |  |  |  |  |  |  | 
5 | 380 | 16 | > 16 | > 16 | O=C(OCc1ccccc1)N1C[C@H](F)[C@@H]2[C@H]1C(=O)N2S(=O)(=O)[O-].[Na+] |  |  |  |  |  |  |  |  | 
6 | 110 | 16 | 8 | 0.5 | O=C(/C=C/c1c[nH]cn1)N1CC[C@@H]2[C@H]1C(=O)N2S(=O)(=O)[O-].[Na+] |  |  |  |  |  |  |  |  | 
7 | 200 | 8 | 8 | 0.5 | Cn1nnnc1SCC(=O)N1CC[C@@H]2[C@H]1C(=O)N2S(=O)(=O)[O-].[Na+] |  |  |  |  |  |  |  |  | 
8 | 217 | 16 | 4 | 0.5 | NC(=O)c1ccc(NC(=O)N2CC[C@@H]3[C@H]2C(=O)N3S(=O)(=O)[O-])cc1.[Na+] |  |  |  |  |  |  |  |  | 
9 | 612 | 16 | 8 | 1 | Cn1ccnc1SCC(=O)N1CC[C@@H]2[C@H]1C(=O)N2S(=O)(=O)[O-].[Na+] |  |  |  |  |  |  |  |  | 
10 | 48 | 16 | 4 | 0.25 | NC(=O)Nc1ccc(NC(=O)N2CC[C@@H]3[C@H]2C(=O)N3S(=O)(=O)[O-])cc1.[Na+] |  |  |  |  |  |  |  |  | 
11 | 2250 | 16 | 4 | 1 | O=C1NCC[C@@H]1NC(=O)N1CC[C@@H]2[C@H]1C(=O)N2S(=O)(=O)[O-].[Na+] |  |  |  |  |  |  |  |  | 
12 | 200 | 16 | 128 | 8 | O=C(OCc1ccccc1)N1CC[C@@H]2[C@H]1C(=O)N2S(=O)(=O)[O-].[Na+] |  |  |  |  |  |  |  |  | 
13 | 24 | 16 | 16 | 1 | NC(=O)c1cccc(NC(=O)N2CC[C@@H]3[C@H]2C(=O)N3S(=O)(=O)[O-])c1.[Na+] |  |  |  |  |  |  |  |  | 
14 |  | 0.25 (≈ 1.26 µM) | > 32 | 8 (≈ 40.2 µM) | O=C(O)[C@H]1/C(=C/CO)O[C@@H]2CC(=O)N21 [CLAVULANIC ACID] |  |  |  |  |  |  |  |  | 

Row | SMILES | IC50 (Beta-lactamase) [nM] | MIC (Escherichia coli) [µg/mL] | MIC (Pseudomonas aeruginosa) [µg/mL] | MIC (Citrobacter freundii) [µg/mL] | Kon [1] [s⁻¹] | k off [2] [s⁻¹] | Ks [3] [µM] | Ratio [4] | Ratio [5] | Ratio [6] | Ratio [7] | k off [8] [s⁻¹] | IC50 (Beta-lactamase TEM)
15 | NC(C(=O)N1CC[C@@H]2[C@H]1C(=O)N2S(=O)(=O)[O-])c1ccc(O)cc1.[Na+] (stereo partly drawn) | 90 | 8 |  |  | 2.7 | < 1e-05 | 6.9 | 8.2 | 8.7 |  |  |  | 
16 | Cn1nnnc1S[C@@H]1CN(C(=O)OCc2ccccc2)[C@@H]2C(=O)N(S(=O)(=O)[O-])[C@@H]21.[Na+] | 613 | 16 |  |  | 3.8 | 4.1e-05 | 15 | 68 | 10 |  |  |  | 
17 | O=C(NC1CCNCC1)N1CC[C@@H]2[C@H]1C(=O)N2S(=O)(=O)[O-].[Na+] | 3900 | 16 |  |  | 1.5 | 0.0012 | 1480 | 1 | 1.7 |  |  |  | 
18 | O=C(Nc1ccc(O)cc1)N1CC[C@@H]2[C@H]1C(=O)N2S(=O)(=O)[O-].[Na+] | 155 | 8 |  |  | 0.4 | 5.3e-05 | 50 | 38 | 0.6 |  |  |  | 
19 | CC(C)(C)OC(=O)N1CCC[C@@H]2[C@H]1C(=O)N2S(=O)(=O)[O-].[Na+] | 145000 | 16 |  |  | 0.5 | 0.0007 | 3500 |  |  | inactive | inactive |  | 
20 | CC(C)(C)OC(=O)N1CC[C@@H]2[C@H]1C(=O)N2S(=O)(=O)[O-].[Na+] | 1500 | 16 |  |  | 11 | 3.7e-05 | 127 | 24 |  |  | inactive |  | 
21 | [NH-]C(=O)c1ccc[n+](CC(=O)N2CC[C@@H]3[C@H]2C(=O)N3S(=O)(=O)[O-])c1.[Na+] | 27 | 8 |  |  | 0.9 |  | 65 | 1.2 | 0.8 |  |  | 9e-06 | 
22 | O=C(Nc1ccccc1)N1CC[C@@H]2[C@H]1C(=O)N2S(=O)(=O)[O-].[Na+] |  | 4 | 8 | 2 |  |  |  |  |  |  |  |  | 420 nM (not active)
